From a melting point compilation (Tetko et al.; mined from patent text by program, amines drawn as free bases though some values may be those of a salt)

Compound | melting point
O=C(OCc1ccc([N+](=O)[O-])cc1)OCc1ccc([N+](=O)[O-])cc1 | 156 to 158 °C
CC(C(=O)O)c1ccc(C(C)(C)C)cc1 (stereo not given) | 101 to 103 °C
Cc1nc(-n2cnn(CC3CC3)c2=O)sc1C(=O)NCc1cocn1 | 157 to 158 °C
CON(C(=O)c1cn(C)nc1C(F)F)C(C)c1cccc(I)c1 (stereo not given) | 136 to 138 °C
COc1nc(C)c(C)nc1NC(=O)N1CCN(c2c(C)c(C)cc(C)c2C)CC1 | 202 to 204 °C
CC(=O)C(=NNc1ccccc1)C(=O)OCC(C)C | 45 to 50 °C
CC(C)(C)[Si](C)(C)OCCCC(=O)c1cc(-c2ccc(S(N)(=O)=O)cc2)n(C2CCCCC2)n1 | 151 to 153 °C
CCOC(OCC)c1cc(NC(c2ccccc2)(c2ccccc2)c2ccccc2)c(F)c(Cc2ccc(F)cc2)n1 | 129 to 130 °C
CC(C)(CO)[C@@H](O)C#N | 110 °C
COc1cccc([C@H]2O[C@H](CC(=O)Nc3ccc(OCCCc4ccccc4)c(CCC(=O)O)c3)C(=O)N(CC(C)(C)CO)c3ccc(Cl)cc32)c1OC | 147 to 149 °C
Nc1c(Cl)cc(Cl)c(-c2nsc(C(F)(F)F)c2Cl)c1Br | 77 to 78 °C
CC(C)Cn1c(CNC(=O)OC(C)(C)C)c(-c2cccc(F)c2)c2cc(C(N)=O)ccc2c1=O | 147 to 149 °C
O=C(O)COc1cc(Cl)ccc1C(=O)NCc1cc(C(F)(F)F)cc(C(F)(F)F)c1 | 191 to 193 °C
CN1C2=C(C(=O)OC2)C(c2ccncc2)c2cc3c(cc21)OCO3 (stereo not given) | 255 °C
O=C1C2C3C=CC(C4CC34)C2C(=O)N1c1ccc([N+](=O)[O-])cc1 (stereo not given) | 210 to 212 °C
COc1ccc(C(=C(C)P(c2ccccc2)c2ccccc2)c2ccc(OC)cc2)cc1 | 123 to 125 °C
C=Cc1ccc2c(c1)c1ccccc1n2CC | 66 to 67 °C
C=CCN1CCC=C(c2csc(N)n2)C1 | 129 to 132 °C
C[Si](C)(C)C#Cc1c(C#N)nn(-c2c(Cl)cc(OC(F)(F)F)cc2Cl)c1N | 152 °C
C=CCn1c(Nc2cc(C(F)(F)F)ccc2C(F)(F)F)nc(C(F)(F)F)cc1=O | 116 to 118 °C
CCCCC#Cc1cc2c(cc1Br)C(C)(C)CCC2(C)C | 59 to 63 °C
CC(C)Oc1ccccc1-c1ccoc1C(=O)NNC(=O)c1ccc(O)c(C#N)c1 | 128 to 130 °C
Cc1cc(C(C)(C)C)cc(CN)c1S | 127 to 131 °C
C[Si](Cn1ncnc1S)(c1ccc(F)cc1)c1ccc(F)cc1 | 97 to 99 °C

Compound | melting point
Fc1cc(Br)ccc1CSc1nc2cnccc2[nH]1 | 204 to 206 °C
Cc1ccc(-c2nc3ccc(N4C[C@H]5CN(C)C[C@H]5C4)nn3c2-c2ccncc2)o1 | 178 to 181 °C
CCCNC(=O)N1c2ccc(S(=O)(=O)n3cc(-c4ccccc4)[nH]c3=O)cc2CC1C (stereo not given) | 138 °C
CCn1c(=O)[nH]c2cnc(-c3ccccc3)nc21 | 268 to 270 °C
CCC(NC(=S)Nc1nc(C)cs1)C(C)C (stereo not given) | 164 to 166 °C
Cc1ccc(C2CCC(=NO)c3ccccc32)cc1 (stereo not given) | 97 to 101 °C
CCc1nc2ccccc2c(=O)n1CCCOc1ccc(SC(C)(C)C(=O)O)cc1 | 156 to 158 °C
OCC1OC(n2c(Cl)nc3cc(Cl)c(Br)cc32)C(O)C1O (stereo not given) | 158 to 159 °C
O=C1Nc2cccnc2N(C(=O)N2CCCC(CCCCN3CCCC3)C2)c2ccccc21 (stereo not given) | 153 to 156 °C
COCC1=C(C(=O)OC)C(c2ccccc2Cl)C(C(=O)OC)=C(COC)N1 | 137 to 138 °C
COc1cc(OCn2nnc3ccccc32)c(C=O)cc1-c1cccs1 | 137 to 138 °C
C#Cc1cc2c(Nc3ccc4c(cnn4Cc4ccccc4)c3)ncnc2s1 | 195 °C
CCCCc1nc2c(N)nc3ccccc3c2n1CCOCc1ccccc1 | 133 to 135 °C
CC(=O)OCC1OC(n2c(=O)sc3c(=O)[nH]c(N)nc32)C(OC(C)=O)C1OC(C)=O (stereo not given) | 198 to 199 °C
CCOC(=O)CCNc1ncccc1NC(=O)c1cccc(Cl)c1 | 111 to 112 °C
CCc1c(C(=O)O)ccc(OC)c1C | 180 °C
Fc1ccc(N=c2sc3ccc(Cl)cc3s2)cc1 | 101 to 102 °C
CC(C)(C)[Si](C)(C)OC1CCN(S(=O)(=O)c2ccc(N3CCCCC3)cc2)C1=S (stereo not given) | 152 to 153 °C
O=C(Nc1ccccn1)c1ccc(OC(F)F)c2oc3ccc(C(F)(F)F)cc3c12 | 169 to 170 °C
CC(C)(C)OC(=O)N1CCN(O)CC1 | 95 to 97 °C
O=C(NCC#CCN1CCN(c2ncccn2)CC1)c1nsc2ccccc12 | 102 to 104 °C
c1cncc(CCNc2nc(-c3cccs3)ncc2-n2cccn2)c1 | 133 to 134 °C
O=C(Nc1ccc(C(=O)Oc2ccccc2)c(Cl)c1)c1ccccc1 | 126 to 128 °C
Cc1nnsc1C(=O)Nc1ccc(-n2nc(C(F)(F)F)cc2OC(F)F)cc1 | 122 to 123 °C

Compound | melting point
COc1ccccc1NC1=NN(S(=O)(=O)c2ccc(C)cc2)CC1 | 176 to 179 °C
CCC(=O)c1c(C)[nH]c(-c2ccccc2)c1N | 166 to 168 °C
COc1cc2nc(Cl)n3ncnc3c2cc1OC | 258 to 260 °C
O=C1N(Cc2ccncc2)Cc2cccnc2N1c1cccc(Cl)c1 | 132 to 134 °C
CCOC(=O)CNC(=O)CCCOc1ccc2nc3[nH]c(=O)[nH]c3cc2c1 | 274 to 276 °C
CCc1c([N+](=O)[O-])cc(C2CCNCC2)cc1[N+](=O)[O-] | 85 to 86 °C
O=c1[nH]c2ccc(O)cc2n1CCN1CCN(c2cccc(C(F)(F)F)c2)CC1 | > 250 °C
CC1(C)Cc2c(CO)c(O)c3c(c2C(c2ccccc2)=N1)CC(C)(C)O3 | 210 to 230 °C
CC(CCc1ccccc1)Nc1nc(Cl)nc(NS(C)(=O)=O)n1 (stereo not given) | 143 °C
CCOc1cc2cc(COC(C)=O)c(COC(C)=O)c(-c3ccncc3)c2cc1OCC | 115 to 116 °C
COc1ccc(-c2c3c(cc4ccc(OCc5ccccc5)cc24)C(=O)NC3)cc1 | 213 to 216 °C
CS(=O)(=O)c1ccc(-n2nc(C(F)(F)F)cc2-c2ccc(-c3cscn3)cc2)cc1Cl | 103 to 107 °C
Cc1ccc2c(c1)Sc1ccc(Cl)cc1CC2N1CCN(CCN2CCOC2=O)CC1 (stereo not given) | 161 to 163 °C
COc1ccc(CC(C)(N)C(=O)O)cc1OC (stereo not given) | 244 to 246 °C
O=C(NC1=NN(c2cccc(Cl)c2)CC1)C(F)(F)F | 143 to 144 °C
CCCCCCCCCCCCCCOc1ccc(OCc2ccccc2)c(C(=O)N(CC(=O)OCC)CC(=O)OCC)c1 | 49 to 50 °C
CCCc1nn(C)c2c(=O)[nH]c(-c3cc(S(=O)(=O)N4CCN(C)CC4)ccc3O)nc12 | 283 to 284 °C
CCCOc1cc(OC)c2c(c1)C(=O)c1cccc(OCCN(CC)CC)c1-2 | 127 to 129 °C
CN(C)CC(C)(C)Oc1cnc(Nc2cc(-c3cccc(-n4ncc5cc(C(C)(C)C)cc(F)c5c4=O)c3CO)nn(C)c2=O)cn1 | 235 to 240 °C
CC1(C2CCC3C4CCC5CC(CC(=O)O)CCC5(C)C4CCC32C)OCCO1 (stereo not given) | 164 to 167 °C
CCOC(=O)C(=CNc1ccc(OC)c(F)c1)C(=O)OCC | 63 °C
CCC(O)c1cnc2c(C)c(NC(=O)c3ccc(-c4ccc(F)cc4)cc3)ccc2c1 (stereo not given) | 204 to 208 °C
